# Peptide text beside a SMILES is read from it.
# What was measured:
# [1] = tested on: GabaA, Benzodiazepine (Central) Site; assay: GabaA, Benzodiazepine (Central) Site Binding Assay; design: species or system Bovine
# [2] = extracts from Experiment 5; tested only in apple and strawberry
# [3] = Taste test: sweetness of materials infused with sweetening agents; conditions: apples, strawberries
# Excerpt: Apples, strawberries, carrots and celery were infused with either aspartame or saccharin with standard procedures, as described above, and sweetness was compared with untreated control. […] Clearly an optimal amount of sweetening agent would be lower. The taste test was repeated using a 0.2% concentration of each sweetening agent with the four biological materials.
# [4] = Taste test: taste or "heat" of materials infused with capsaicin; conditions: carrots, apples and squash infused with 2% capsaicin
# Excerpt: Carrots, apples and squash were infused with 2% capsaicin (the active constituent of cayenne pepper) with standard procedures, as described above, and the taste or “heat” of the infused materials was compared with untreated control materials.
# [5] = carrots and celery infused with standard procedures
# [6] = carrots and celery, 0.2% concentration of sweetening agent
SMILES,"sweetness compared with untreated control [3, 5]","sweetness compared with untreated control [3, 6]",other results
"CN1C(=O)CN=C(c2ccccc2F)c2cc([N+](=O)[O-])ccc21 [Flunitrazepam, flunitrazepam]",,,"specific binding of extract containing the infused agent ([1]; extracts from Experiment 5, tested only in celery and tomato): demonstrated specific binding"
"C[C@]1(O)CC[C@H]2[C@@H]3CCC4=CC(=O)CCC4=C3C=C[C@@]21C [Methyltrienolone, methyltrienolone]",,,specific binding of extract containing the infused agent [2]: demonstrated specific binding
CN1C(=O)CN=C(c2ccccc2F)c2cc([N+](=O)[O-])ccc21 [[^3H] Flunitrazepam],,,"Kd ([1]; assay characteristic of the radioligand, bovine cortical membranes, read-out: KD (binding affinity)): 1.4 nM"
COC(=O)[C@H](Cc1ccccc1)NC(=O)[C@@H](N)CC(=O)O [aspartame] (H-Asp-Phe-OMe),markedly and significantly sweeter,significantly enhanced over the untreated controls,
"COc1cc(CNC(=O)CCCCC=CC(C)C)ccc1O [capsaicin, 8-methyl-N-vanillyl-6-nonenamide]",,,"taste or ""heat"" compared with untreated control [4]: markedly and significantly “hotter”"
O=C1NS(=O)(=O)c2ccccc21 [saccharin],markedly and significantly sweeter,significantly enhanced over the untreated controls,
